Like-named read-outs stand apart in the source and are kept apart here.
What was measured:
[1] = target: T1, COX-2 (Homo sapiens, UniProt P35354); test: COX-2 inhibitory screening assay (Cayman kit); format: biochemical; conditions: for Increase in COX-2 inhibitory efficiency by duplicating the concentration: % inhibition at 0.200 mg/mL divided by % inhibition at 0.100 mg/mL; for inhibition at 100 µg/mL: at 0.100 mg/mL; for inhibition at 100 µg/mL / inhibition at 200 µg/mL: read-out: COX-2 mean % inhibition ± SD; for inhibition at 200 µg/mL: at 0.200 mg/mL
T1 construct: purchased Cayman Chemical Company 701080
T1 sequence (P35354 18-604): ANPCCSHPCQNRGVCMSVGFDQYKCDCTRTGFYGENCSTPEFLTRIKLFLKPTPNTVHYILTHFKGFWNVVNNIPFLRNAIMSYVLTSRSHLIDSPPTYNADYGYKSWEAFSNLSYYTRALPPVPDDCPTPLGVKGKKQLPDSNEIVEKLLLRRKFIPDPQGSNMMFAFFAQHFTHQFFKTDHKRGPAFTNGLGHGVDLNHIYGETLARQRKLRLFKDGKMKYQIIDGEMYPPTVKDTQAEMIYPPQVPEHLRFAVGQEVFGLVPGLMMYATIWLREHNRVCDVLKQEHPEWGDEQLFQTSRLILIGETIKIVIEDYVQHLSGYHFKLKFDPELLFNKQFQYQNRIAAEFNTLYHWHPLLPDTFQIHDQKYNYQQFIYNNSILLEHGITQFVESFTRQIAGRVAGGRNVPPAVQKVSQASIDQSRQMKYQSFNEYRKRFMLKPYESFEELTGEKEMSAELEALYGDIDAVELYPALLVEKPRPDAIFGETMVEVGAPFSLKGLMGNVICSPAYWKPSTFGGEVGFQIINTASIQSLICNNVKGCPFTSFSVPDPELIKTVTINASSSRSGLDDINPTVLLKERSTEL
Method: Each compound of the two series, 3a–h and 5a–h, was resuspended in 100% DMSO at a final concentration of 10 mg/mL. […] Briefly, 10 µL of the tested compound was added to a mixture of the reaction buffer solution (160 µL of 0.1 M Tris-HCl, pH 8.0, in the presence of 2 mM phenol and 5 mM EDTA), COX-2 (10 µL) and heme (10 µL). After a 10 min incubation at 37 °C, the reaction was started by adding arachidonic acid (10 µL), rapidly mixed and kept at 37 °C for 2 min. PGF2α generated via PGH2 reduction with stannous chloride (30 µL) was incubated at room temperature for 5 min. The PGF2α amount was then determined via an enzyme immunoassay. Prior to incubation with the COX-2 reaction (at room temperature 18 h), the 96-well plate was previously coated with a mouse anti-rabbit monoclonal antibody. Unbound reagents were removed by washing the plate followed by adding Ellman’s reagent to the well. The reaction product displaying a distinct yellow color was measured at 410 nm using a UV microplate reader. The % inhibition was calculated by comparing the PGF2α produced in the compound-treated samples with a control sample, using the following equation: % inhibition is equal to [([PGF2α]control − [PGF2α]sample) /[PGF2α ]control ] × 100. […] The COX-2 inhibitory efficiency was expressed as an inhibition percentage, which was determined via a comparison with the negative control experiments.

[2] = DPPH radical scavenging assay; format: biochemical; conditions: for Mean IC50 for scavenging initial DPPH radicals: mean ± SD of three replicates; for IC50: mean ± SD, converted from mg/mL, read-out: Mean IC50 for scavenging initial DPPH radicals (converted)
Source text: In principle, the antioxidant power of a compound in this assay is correlated to its tendency to reduce the stable, purple-colored DPPH radical through a hydrogen atom transfer (HAT) mechanism and/or a single electron transfer mechanism, thereby converting it to the yellow-colored 2,2-diphenyl-1-picrylhydrazine, whereby this reduction is accompanied by a depletion in the amount of the initial DPPH radicals and a change in the absorbance of the test solution accordingly, which can be detected relative to the blank solution at λ = 517 nm.
The antioxidant potencies of all synthesized compounds were investigated using a 1,1 diphenyl-2-picrylhydrazyl (DPPH) radical scavenging assay according to the protocol described by Bersuder et al.. In brief, a 0.5 mL volume of DPPH ethanolic solution was mixed with an equal volume of each sample concentration (i.e., the test compound or butylated hydroxytoluene, BHT, which was used as the reference antioxidant in the positive control experiment), shaken strongly, and incubated at room temperature for 1 h in darkness. The absorbance of the residual DPPH radicals was measured at λ = 519 nm and compared to the negative control (without the test compound or reference antioxidant). The DPPH radical scavenging power was calculated using the following formula: scavenging efficiency (%) = (1 − Acompound/AControl) × 100, where Acompound and Acontrol are the absorbance of the tested compound and the negative control, respectively. […] Additionally, the ± SD values were calculated from three independent triplicate measurements.

[3] = test system: LoVo human colon carcinoma cells; test: Viability assay (LDH release), LoVo; format: cell-based; conditions: Homo sapiens, LoVo, 48 h, read-out: Mean % of viable cells ± SD, LoVo
Method: (§1) The anticancer activities of all the synthesized compounds were assessed against two human colon carcinoma cell lines, namely LoVo and HCT-116 (Table 6), via the determination of the mean percents of the viable cancerous cells remaining after being incubated with 200 µg/mL of each test compound for 48 h using LDH assay.
(§2) The samples were diluted in Dulbecco’s Modified Eagle’s Medium, consisting of 10% fetal bovine serum (FBS), added to cells grown and cultured for 24 h in a 5% CO2-humidified incubator at 37 °C. Thereafter, the activity of lactate dehydrogenase released from damaged cells was determined in the collected supernatant aliquots using an ELISA end-point assay (Benchmark Plus, Bio-Rad, CA, USA); 0.1% Triton X-100 in the assay medium and the assay medium only were used as the positive and negative controls, respectively. Cell viability was expressed as a relative percentage of the OD values (at 550 nm) for compound-treated cells (final concentration of 200 µg /mL) and the negative control, which was shown as the mean % ± SD (n = 3). The results of the viability assays for the potential cytotoxic candidates were compared with the % of viable human umbilical vein endothelial cells (HUVEC) at the same concentration. These cells were grown in Dulbecco’s Modified Eagle’s Medium (PAN-Biotech; Barcelona, Spain) containing 10% FBS (Sigma Aldrich; St. Quentin-Fallavier, France), 2 mM Glutamine (Sigma Aldrich), 100 units/mL penicillin and […] streptomycin (Life Technologies; Paisley, UK).

[4] = target: α-amylase; test: In vitro α-amylase (AA) inhibition assay; conditions: mean ± SD of three replicates; for IC50: read-out: Mean IC50 α-Amylase (AA)
Method: Then, 180 µL of Labtest (the amylase substrate) was added and the samples were incubated for 8 min, followed by measuring the first reaction at 620 nm to obtain (X1). Afterwards, the reaction mixture was incubated for an additional 5 min at 37 °C; then, the second reaction was measured to obtain the final reading (X2). […] The results were expressed as IC50 µg/mL (as well as µM) and were determined from the standard curves.

[5] = target: purified recombinant human LDHA protein (Homo sapiens, UniProt P00338); test: Lactate dehydrogenase A (LDHA) inhibitory assay; format: biochemical; conditions: for Fold change of LDHA inhibition as compared to 0.1 mg/mL: % inhibition at 0.200 mg/mL divided by % inhibition at 0.100 mg/mL; for inhibition at 100 µg/mL: at 0.1 mg/mL; for inhibition at 100 µg/mL / inhibition at 200 µg/mL: read-out: LDHA mean % inhibition ± SD; for inhibition at 200 µg/mL: at 0.2 mg/mL
Method: The LDHA inhibitory effectiveness was investigated by measuring the amounts of consumed NADH [73]. […] The fluorescence of NADH, which has an excitation wavelength of 340 nm and an emission wavelength of 460 nm, was detected using a spectrofluorometer. […] The LDHA inhibitory efficiency was expressed as an inhibition percentage, which was determined via a comparison with the negative control experiments.

[6] = test system: HCT-116 human colon carcinoma cells; test: Viability assay (LDH release), HCT-116; format: cell-based; conditions: Homo sapiens, read-out: Mean % of viable cells ± SD, HCT-116
Method: as §1, §2

Structure (SMILES)	Increase in COX-2 inhibitory efficiency by duplicating the concentration [1] [fold]	inhibition at 100 µg/mL [1] [%]	inhibition at 200 µg/mL [1] [%]	Mean IC50 for scavenging initial DPPH radicals [2] [µg/mL]	IC50 [2] [µM]	viability at 200 µg/mL [3] [%]	Mean IC50 α-Amylase (AA) [4] [µg/mL]	IC50 [4] [µM]	Fold change of LDHA inhibition as compared to 0.1 mg/mL [5] [fold]	inhibition at 100 µg/mL [5] [%]	inhibition at 200 µg/mL [5] [%]	viability at 200 µg/mL ([6]; HCT-116, 48 h) [%]	viability at 200 µg/mL ([3]; 200 µg/mL) [%]	viability at 200 µg/mL ([6]; HCT-116, 200 µg/mL, 48 h) [%]
COc1cc2[nH]c(=S)n(-c3ccc([N+](=O)[O-])cc3)c(=O)c2cc1OC [Compound 3h, 6,7-Dimethoxy-3-(4-nitro-phenyl)-2-thioxo-2,3-dihydro-1H-quinazolin-4-one]	1.900	14.6 ± 0.636	27.6 ± 2.19	325 ± 7	904	64 ± 3	122.000 ± 4.583	339	1.47	29.9 ± 1.77	43.9 ± 1.56	70.3 ± 3.79	–	–
COc1ccc(Br)c(CSc2nc3ccc(Br)cc3c(=O)n2-c2ccc(C(F)(F)F)cc2)c1 [Compound 5e, 2-(2-Bromo-5-methoxybenzylsulfanyl)-6-bromo-3-(4-trifluoromethyl-phenyl)-3H-quinazolin-4-one]	1.67	31 ± 2.83	51.6 ± 4.88	225 ± 21	375	–	150.333 ± 3.512	250	1.29	15.2 ± 1.77	19.6 ± 2.33	–	64.3 ± 2.08	79.7 ± 2.52
O=c1c2cc(Br)ccc2nc(SCc2cccc([N+](=O)[O-])c2)n1-c1ccc([N+](=O)[O-])cc1 [Compound 5g, 2-(3-Nitro-benzylsulfanyl)-6-bromo-3-(4-nitro-phenyl)-3H-quinazolin-4-one]	1.83	14.2 ± 1.77	26 ± 2.83	200 ± 14	390	74.7 ± 2.52	339.000 ± 4.000	660	1.75	15.8 ± 2.05	27.7 ± 2.55	66.3 ± 3.06	–	–
O=c1c2cc(Br)ccc2[nH]c(=S)n1-c1ccc(C(F)(F)F)cc1 [Compound 3e, 6-Bromo-2-thioxo-3-(4-trifluoromethyl-phenyl)-2,3-dihydro-1H-quinazolin-4-one]	1.50	10.4 ± 1.7	15.7 ± 0.495	290 ± 28	723	90.7 ± 3.51	252.00 ± 4.583	628	1.62	22.1 ± 1.2	36 ± 1.34	92.3 ± 2.52	–	–
COc1ccc(Br)c(CSc2nc3ccc(Cl)cc3c(=O)n2-c2ccc([N+](=O)[O-])cc2)c1 [Compound 5f, 2-(2-Bromo-5-methoxy-benzylsulfanyl)-6-chloro-3-(4-nitro-phenyl)-3H-quinazolin-4-one]	1.80	28.9 ± 2.69	52 ± 2.83	241 ± 13	452	–	106.667 ± 5.033	200	1.60	31.9 ± 2.48	51 ± 3.61	–	84.3 ± 3.51	76 ± 1.73
COc1cc2nc(SCc3cccc([N+](=O)[O-])c3)n(-c3cccc(C(F)(F)F)c3)c(=O)c2cc1OC [Compound 5c, 2-(3-Nitrobenzylsulfanyl)-6,7-dimethoxy-3(3-trifluoromethyl-phenyl)-3H-quinazolin-4-one]	1.41	18.6 ± 3.46	26.2 ± 4.03	186 ± 6	359	–	197.333 ± 4.509	381	1.67	8.55 ± 1.06	14.3 ± 1.56	–	78.3 ± 3.51	82.3 ± 2.52
